Results on 22 molecules are retold here after patent US10654837B2, “Sulphamoylaryl derivatives and use thereof as medicaments for the treatment of liver fibrosis” (Janssen Pharmaceutica NV, priority 2017, dated 2020).

As a reminder, the IC50 is the point on the concentration scale where inhibition reaches its midpoint.

In the test the target is T1, 5HTR2B (Homo sapiens, UniProt P41595).
T1 construct: host or cells: human Maverick/293 cells
T1 sequence (P41595 whole entry): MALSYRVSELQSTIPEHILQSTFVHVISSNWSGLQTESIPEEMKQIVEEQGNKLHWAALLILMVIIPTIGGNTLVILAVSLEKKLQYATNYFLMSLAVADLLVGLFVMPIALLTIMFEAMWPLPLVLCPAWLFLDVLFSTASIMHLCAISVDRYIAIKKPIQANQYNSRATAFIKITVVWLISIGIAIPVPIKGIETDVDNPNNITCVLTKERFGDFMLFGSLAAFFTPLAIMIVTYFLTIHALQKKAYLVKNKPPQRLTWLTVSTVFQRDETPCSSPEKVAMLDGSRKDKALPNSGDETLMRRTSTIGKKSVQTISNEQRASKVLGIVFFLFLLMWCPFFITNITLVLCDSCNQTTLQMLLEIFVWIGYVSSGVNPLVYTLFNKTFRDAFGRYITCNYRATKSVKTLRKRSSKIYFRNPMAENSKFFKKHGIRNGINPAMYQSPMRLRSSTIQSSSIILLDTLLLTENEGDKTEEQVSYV
The test can be described thus: 5HTR2B antagonist activity, calcium mobilization assay in human Maverick/293 cells (serotonin as agonist). The note with it: intracellular calcium, emission 525 nm, read-out: Ca assay IC50. The class given is cell-based. As for the experimental part: The 5HTR2B antagonist activity was measured using human Maverick/293 cells in a calcium mobilization assay. The measurement starting with plating human Maverick/293 cells (log phase) onto 96-well black and incubate at 37° C. overnight, Followed by starving cells for 2 h by changing complete medium to DMEM without FBS, removing the medium from the 96-well plate. Loading staining calcium buffer into each well and incubated the plate at 37° C. for 50 min. After removal of staining calcium buffer, diluted antagonist were added into the well, incubate 15 to 30 minutes. Dispense serotonin as the 5HTR2B agonists into each well. Intracellular calcium concentration is recorded for 80 seconds by monitoring an emission at a wavelength of 525 nm with an excitation wavelength of 485 nm. Inhibition efficiency of the cell line was determined following the equation: % Inhibition=100%−(D−B)/(S−B)*100%. (S: The peak value in the presence of agonist serotonin; D: The peak value in the presence of different dilution compound or serotonin; B: The peak value in the presence of calcium HBSS buffer only). […] A dose response curve was fitted using nonlinear regression model with a sigmoidal dose response. The IC50 was automatically produced by GraphPad Prism 5.0.
On the technique in general: A change in cytosolic calcium serves as a functional read-out for many receptors and channels.
On to `COc1ccc(S(=O)(=O)NC(C)CC#N)cc1C(=O)Nc1ccc(F)c(C)c1` (single isomer, unassigned) [Compound 11a, (S*)-5-(N-(1-Cyanopropan-2-yl)sulfamoyl)-N-(4-fluoro-3-methylphenyl)-2-methoxybenzamide], for which the IC50 came out at 68 nM.
Under `COc1ccc(S(=O)(=O)N[C@H](C)CC#N)cc1C(=O)Nc1ccc(F)c(C)c1` (single isomer, unassigned) [Compound 11b, (R*)-5-(N-(1-Cyanopropan-2-yl)sulfamoyl)-N-(4-fluoro-3-methylphenyl-2-methoxybenzamide] stands 5.1 nM; under `COc1ccc(S(=O)(=O)N[C@@H]2CC[C@H](O)C2)cc1C(=O)Nc1ccc(F)c(C)c1` (single isomer, unassigned) [Compound 15b, N-(4-Fluoro-3-methylphenyl)-5-(N-((cis)-3-hydroxycyclopentyl)sulfamoyl)-2-methoxybenzamide], 1 nM; under `COc1ccc(S(=O)(=O)NC2CCCOC2)cc1C(=O)Nc1ccc(F)c(C)n1` (single isomer, unassigned) [Compound 16a, (S*)—N-(5-Fluoro-6-methylpyridin-2-yl)-2-methoxy-5-(N-(tetrahydro-2H-pyran-3-yl)sulfamoyl)benzamide], 1.1 nM.
In the case of `COc1ccc(S(=O)(=O)NC2CCCOC2)cc1C(=O)Nc1ccc(F)c(C)n1` (single isomer, unassigned) [Compound 16b, (R*)—N-(5-Fluoro-6-methylpyridin-2-yl)-2-methoxy-5-(N-(tetrahydro-2H-pyran-3-yl)sulfamoyl)benzamide] it was 9.1 nM.
Under `COc1ccc(S(=O)(=O)NCC(O)C(F)(F)F)cc1C(=O)Nc1ccc(F)c(C)n1` (single isomer, unassigned) [Compound 23a, (R*)—N-(5-fluoro-6-methylpyridin-2-yl)-2-methoxy-5-(N-(3,3,3-trifluoro-2-hydroxypropyl)sulfamoyl)benzamide] stands 4.7 nM.
For the molecule `COc1ccc(S(=O)(=O)NCC(O)C(F)(F)F)cc1C(=O)Nc1ccc(F)c(C)n1` (single isomer, unassigned) [Compound 23b, (S*)—N-(5-fluoro-6-methylpyridin-2-yl)-2-methoxy-5-(N-(3,3,3-trifluoro-2-hydroxypropyl)sulfamoyl)benzamide], the IC50 amounted to 5 nM.
Under `COc1ccc(S(=O)(=O)NC(C)C(F)(F)F)cc1C(=O)Nc1ccc(F)c(C)n1` (single isomer, unassigned) [Compound 29a, (S*)—N-(5-Fluoro-6-methylpyridin-2-yl)-2-methoxy-5-(N-(1,1,1-trifluoropropan-2-yl)sulfamoyl)benzamide] stands 3 nM; under `COc1ccc(S(=O)(=O)NC(C)C(F)(F)F)cc1C(=O)Nc1ccc(F)c(C)n1` (single isomer, unassigned) [Compound 29b, (R*)—N-(5-Fluoro-6-methylpyridin-2-yl)-2-methoxy-5-(N-(1,1,1-trifluoropropan-2-yl)sulfamoyl)benzamide], 4.6 nM.
Take `COCC(C)NS(=O)(=O)c1ccc(OC)c(C(=O)Nc2ccc(F)c(C(F)F)c2)c1` (single isomer, unassigned) [Compound 32a, (R*)—N-(3-(Difluoromethyl)-4-fluorophenyl)-2-methoxy-5-(N-(1-methoxypropan-2-yl)sulfamoyl)benzamide]: the half-inhibitory concentration (IC50) amounted to 1.8 nM.
In the case of `COCC(C)NS(=O)(=O)c1ccc(OC)c(C(=O)Nc2ccc(F)c(C(F)F)c2)c1` (single isomer, unassigned) [Compound 32b, (S*)—N-(3-(Difluoromethyl)-4-fluorophenyl)-2-methoxy-5-(N-(1-methoxypropan-2-yl)sulfamoyl)benzamide] it was 8.5 nM.
On to `COc1ccc(S(=O)(=O)N[C@@H]2CC[C@H](O)C2)cc1C(=O)Nc1ccc(F)c(C(F)F)c1` (single isomer, unassigned) [Compound 33a, N-(3-(Difluoromethyl)-4-fluorophenyl)-5-(N-((cis)-3-hydroxycyclopentyl)sulfamoyl)-2-methoxybenzamide], for which the IC50 is 0.4 nM.
In the case of `COC[C@H](C)NS(=O)(=O)c1ccc(OC)c(C(=O)Nc2ccc(F)cc2)c1` (single isomer, unassigned) [Compound 40a, (S*)—N-(4-Fluorophenyl)-2-methoxy-5-(N-(1-methoxypropan-2-yl)sulfamoyl) benzamide] it was 1.7 nM; in that of `COC[C@@H](C)NS(=O)(=O)c1ccc(OC)c(C(=O)Nc2ccc(F)cc2)c1` (single isomer, unassigned) [Compound 40b, (R*)—N-(4-Fluorophenyl)-2-methoxy-5-(N-(1-methoxypropan-2-yl)sulfamoyl) benzamide], 9.5 nM.
Under `COc1ccc(S(=O)(=O)NCC(O)C(F)(F)F)cc1C(=O)Nc1ccc(F)cc1` (single isomer, unassigned) [Compound 44a, (S*)—N-(4-Fluorophenyl)-2-methoxy-5-(N-(3,3,3-trifluoro-2-hydroxypropyl)sulfamoyl)benzamide] stands 2.4 nM; under `COc1ccc(S(=O)(=O)NCC(O)C(F)(F)F)cc1C(=O)Nc1ccc(F)cc1` (single isomer, unassigned) [Compound 44b, (R*)—N-(4-Fluorophenyl)-2-methoxy-5-(N-(3,3,3-trifluoro-2-hydroxypropyl)sulfamoyl)benzamide], 3.2 nM.
As to `COc1ccc(S(=O)(=O)N[C@@H]2CC[C@H](O)C2)cc1C(=O)Nc1ccc(F)cc1` (single isomer, unassigned) [Compound 45a, N-(4-Fluorophenyl)-5-(N-((cis)-3-hydroxycyclopentyl)sulfamoyl)-2-methoxybenzamide], the IC50 came to 1.3 nM.
In the case of `COc1ccc(S(=O)(=O)N[C@H]2CCN(C)C2=O)cc1C(=O)Nc1ccccc1Cl` (single isomer, unassigned) [Compound 54a, (S*)—N-(2-Chlorophenyl)-2-methoxy-5-(1-methyl-2-oxopyrrolidin-3-yl) sulfamoyl)benzamide] it was 1.1 nM.
Under `COc1ccc(S(=O)(=O)NC2CCN(C)C2=O)cc1C(=O)Nc1ccccc1Cl` (single isomer, unassigned) [Compound 54b, (R*)—N-(2-Chlorophenyl)-2-methoxy-5-(N-(1-methyl-2-oxopyrrolidin-3-yl)sulfamoyl)benzamide] stands 1.2 nM; under `COc1ccc(S(=O)(=O)N[C@@H](C)CC#N)cc1C(=O)Nc1ccccc1Cl` (single isomer, unassigned) [Compound 60a, (S*)—N-(2-Chlorophenyl)-5-(N-(1-cyanopropan-2-yl)sulfamoyl)-2-methoxy benzamide], 0.4 nM.
Regarding `COc1ccc(S(=O)(=O)N[C@H](C)CC#N)cc1C(=O)Nc1ccccc1Cl` (single isomer, unassigned) [Compound 60b, (R*)—N-(2-chlorophenyl)-5-(N-(1-cyanopropan-2-yl)sulfamoyl)-2-methoxy benzamide], the IC50 was found to be 0.4 nM.
As for `COc1ccc(NS(=O)(=O)[C@H]2CCOC2)cc1C(=O)Nc1ccc(F)c(C)c1` (single isomer, unassigned) [Compound 202a, (S*)N-4-fluoro-3-methylphenyl)-2-methoxy-5-(tetrahydrofuran-3-sulfonamido)benzamide], the IC50 is 1 nM.
